Where a SMILES comes first, the peptide text is derived from it. Bridges are numbered along the chain shown (N, C = ends). Where no end group is shown, it is not given here. [ ]: non-standard residue; d: D form. 2Nal = N[C@@H](Cc1ccc2ccccc2c1)C(=O)O; d2Nal = N[C@H](Cc1ccc2ccccc2c1)C(=O)O; Lys(Et2) = CCN(CC)CCCC[C@H](N)C(=O)O
Columns and labels:
[1] = target: T1, rat NMB receptor (Rattus norvegicus, UniProt P24053); assay: Binding of 125I-[D-Tyr0]NMB to NMB-R transfected BALB 3T3 cells; details: for fold by which cyclo SS-octa was more potent than the analog: inhibition of ^125I-[Tyr^0]NMB binding to NMB-R transfected cells; for decrease in NMB receptor affinity compared with #1: structure-function comparison of Table 1 values
T1 construct: a full length NMB-preferring bombesin receptor clone generated from rat esophagus; expressed in transfected cells; host or cells: BALB 3T3 cells
T1 sequence (P24053 1-390): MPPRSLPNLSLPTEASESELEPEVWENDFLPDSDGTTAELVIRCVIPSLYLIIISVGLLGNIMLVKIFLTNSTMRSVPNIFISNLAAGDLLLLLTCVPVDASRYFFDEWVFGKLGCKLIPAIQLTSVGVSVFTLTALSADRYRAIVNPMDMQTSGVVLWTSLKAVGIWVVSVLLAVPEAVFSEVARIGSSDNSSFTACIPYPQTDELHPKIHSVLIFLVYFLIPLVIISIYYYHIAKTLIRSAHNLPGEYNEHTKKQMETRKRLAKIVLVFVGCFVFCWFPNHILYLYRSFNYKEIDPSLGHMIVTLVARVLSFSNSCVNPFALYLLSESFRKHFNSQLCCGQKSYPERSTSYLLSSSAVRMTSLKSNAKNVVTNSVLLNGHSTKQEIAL
Description: (§1) Cells were passaged every 3-4 days at confluence, using 0.1% trypsin in 1 mM EDTA. Rat glioblastoma C-6 tumor cells were maintained similarly and were passaged weekly at confluence. Both cell lines were cultured at 37°C in a 5% CO2 atmosphere. Rat AR 42J pancreatic acinar cells were cultured in Dulbecco's modified Eagle's medium (DMEM) without antibiotics and supplemented with 10% (vol/vol) fetal calf serum. The incubation atmosphere consisted of 10% CO2-90% humidified air at 37°C.

[2] = target: T2, NMB Receptor (Rattus norvegicus, UniProt P24053); assay: [3H]inositol phosphates (IP) in NMB-R transfected cells; type: cell-based; details: for NMB-R Transfected Cells [^3H]IP Alone (10 µ M): analog 10 µM alone, no-additive control 13 ± 3; for NMB-R Transfected Cells [^3H]IP Plus NMB (3 nM): analog 10 µM plus NMB 3 nM, NMB without analog 186 ± 58; for effect on NMB-stimulated increase in [^3H]IP: NMB-R transfected cells, 3 nM NMB, peptide 10 µM
T2 construct: a full length NMB-preferring bombesin receptor clone generated from rat esophagus; expressed in transfected cells; host or cells: BALB 3T3 cells
T2 sequence (P24053 1-390): T1 sequence (P24053 1-390)
Description: as §1, with “As described previously [Wada, E., et al. Neuron 6:421 (1991)], BALB 3T3 cells expressing a stably transfected rat NMB receptor (NMB-R transfected cells) were obtained using calcium phosphate precipitation of a full length NMB-preferring bombesin receptor clone generated from rat esophagus and subcloned into a modified version of the pCD2 plasmid. Cells” for “Cells”
(§2) Total phosphoinositides in C-6 cells and in NMB-R transfected cells were determined as described previously, with minor modifications [Benya, R. V. et al. Mol. Pharmacol. 42:1058 (1992); and Wang, L-H. et al. Biochem. J. 286:641 (1992)]. Cells were grown to confluence in 24-well plates and then loaded with 100 µCi/ml myo-[2-^3H]inositol in Dulbecco's modified essential medium with 2% fetal bovine serum at 37°C for 48 hrs. Cells were washed and incubated in phosphoinositide buffer (standard buffer additionally containing 10 mM LiCl, 20 mM HEPES, 2 mM CaCl2, 2% BSA, and 1.2 mM MgSO4) for 15 min and then for 60 min at 37°C with agonists at various concentrations or with 3 nM NMB (a half-maximal effective concentration) and possible antagonists at different concentrations. Reactions were halted using ice-cold 1% HCl in methanol, and the inositol phosphates (IP) were isolated as described previously [Bologna, M. et al. Cancer 63:1714 (1989); and Endo, T. et al. J. Endocrinol. 131:313 (1991)]. Briefly, after loading of the anion exchange column, free [^3H]glycerophosphorylinositol was removed by washing with 5 mM disodium tetraborate in 60 mM sodium formate. Total [^3H]inositol phosphates were then eluted using 100 mM formic acid in 1.0 M ammonium formate as described previously [Benya, R. V. et al. Mol. Pharmacol. 42:1058 (1992); and Wang, L-H. et al. Biochem. J. 286:641 (1992)].

[3] = target: T3, GRP Receptor (Rattus norvegicus, UniProt P52500); assay: Amylase release from rat pancreatic acini; type: cell-based; details: for Rat Pancreatic Acini Amylase Release Alone (10µM): analog 10 µM alone, no-additive control 4 ± 1; for Rat Pancreatic Acini Amylase Release Plus Bn(0.3 nM): analog 10 µM plus Bn 0.3 nM, Bn without analog 15 ± 1
T3 construct: from tissue; host or cells: dispersed pancreatic acini

[4] = target: T4, NMB receptors on C-6 glioblastoma cells (Rattus norvegicus, UniProt P24053); assay: NMB-stimulated [3H]IP in C-6 glioblastoma cells; type: cell-based
T4 construct: endogenous in cells; host or cells: rat glioblastoma C-6 cells
T4 sequence (P24053 1-390): T1 sequence (P24053 1-390)
Description: as §2, with “for 60 min at 37°C with agonists at various concentrations or with 3 nM NMB (a half-maximal effective concentration) and possible antagonists at different concentrations.” left out

[5] = tested on: endothelin-1-simulated increases in [^3H]IP; assay: Endothelin-1-stimulated [3H]IP in C-6 glioblastoma cells; type: cell-based, rat
Description: as §2

[6] = target: T5, NMB receptors on rat olfactory bulb membranes (Rattus norvegicus, UniProt P24053); assay: NMB membrane receptor assay (rat olfactory bulb membranes); type: binding
T5 construct: Membranes were prepared from rat olfactory bulb (NMB membrane receptor assay); from tissue; host or cells: rat olfactory bulb membranes
T5 sequence (P24053 1-390): T1 sequence (P24053 1-390)

T3 sequence (P52500 whole entry): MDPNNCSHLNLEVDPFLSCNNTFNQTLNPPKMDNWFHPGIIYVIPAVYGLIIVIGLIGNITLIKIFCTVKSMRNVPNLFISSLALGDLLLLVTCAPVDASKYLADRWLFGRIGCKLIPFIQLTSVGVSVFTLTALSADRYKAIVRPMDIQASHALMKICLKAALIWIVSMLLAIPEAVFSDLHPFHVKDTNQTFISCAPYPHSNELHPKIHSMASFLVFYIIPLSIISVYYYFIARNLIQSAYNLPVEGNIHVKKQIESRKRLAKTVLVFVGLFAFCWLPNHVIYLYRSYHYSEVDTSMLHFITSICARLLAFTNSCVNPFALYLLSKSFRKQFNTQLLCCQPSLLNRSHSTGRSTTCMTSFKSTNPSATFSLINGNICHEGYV

Compound	fold by which cyclo SS-octa was more potent than the analog [1] [fold]	decrease in NMB receptor affinity compared with #1 [1]	NMB-R Transfected Cells [^3H]IP Alone (10 µ M) [2] [dpm x 10^3]	NMB-R Transfected Cells [^3H]IP Plus NMB (3 nM) [2] [dpm x 10^3]	Rat Pancreatic Acini Amylase Release Alone (10µM) [3] [% total]	Rat Pancreatic Acini Amylase Release Plus Bn(0.3 nM) [3] [% total]	[^3H]IP, Peptide Added NMB (10 nM) ([4]; C-6 glioblastoma cells, analog 10 µM plus NMB 10 nM) [dpm x 10^3]	[^3H]IP, Peptide Added None ([4]; C-6 glioblastoma cells, analog 10 µM, no agonist, control 7.2±1.0) [dpm x 10^3]	effect on NMB-stimulated increases in [^3H]IP in C-6 glioblastoma cells ([4]; Table 3)	[^3H]IP, Peptide Added ET-1 (0.1 nM) ([5]; C-6 glioblastoma cells, analog 10 µM plus ET-1 0.1 nM) [dpm x 10^3]	effect on endothelin-1-simulated increases in [^3H]IP in C-6 cells ([5]; Table 3)	effect on NMB-stimulated increase in [^3H]IP [2]	fold greater affinity for NMB receptors than mu opioid receptors ([6]; rat olfactory bulb versus rat forebrain membranes (Table 4)) [fold]	fold higher affinity for NMB receptors than somatostatin receptors ([6]; rat olfactory bulb versus AR 42J membranes (Table 4)) [fold]	fold greater affinity for the NMB than the GRP receptors ([1]; NMB-R transfected cells versus GRP receptors on rat pancreatic acini) [fold]	[^3H]IP, ET-1 (0.1 nM) Alone ([5]; C-6 glioblastoma cells, agonist without analog, basal 7.2±1.0) [dpm x 10^3]
C[C@@H](O)[C@H](NC(=O)[C@@H]1CSSC[C@H](NC(=O)[C@H](N)Cc2ccc3ccccc3c2)C(=O)N[C@@H](Cc2ccc(O)cc2)C(=O)N[C@H](Cc2c[nH]c3ccccc23)C(=O)N[C@@H](CCCCN)C(=O)N[C@@H](Cc2ccc3ccccc3c2)C(=O)N1)C(N)=O [Analog #2, [Nal^6,Thr^8]-cyclo SS-octa]	4	4 fold	11 ± 2	39 ± 7	5 ± 1	13 ± 1	14.3 ± 4.2	7.3±1.2	inhibited	11.2±1.9	had no effect	–	–	–	–	–
CC(C)[C@@H]1NC(=O)[C@H](CCCCN)NC(=O)[C@@H](Cc2c[nH]c3ccccc23)NC(=O)[C@H](Cc2ccc(O)cc2)NC(=O)[C@@H](NC(=O)[C@H](N)Cc2ccc3ccccc3c2)CSSC[C@H](C(=O)N[C@@H](Cc2ccc3ccccc3c2)C(N)=O)NC1=O [Analog #11, [D-Cys^7]-cyclo SS-octa] (H-[d2Nal]CY[dW]KV[dC][2Nal]-NH2; disulfide 2-7; N-terminus assumed)	6	5 fold	10 ± 1	7 ± 4	2 ± 1	14 ± 1	–	–	–	–	–	completely inhibited	> 50	–	–	–
CC(C)[C@@H]1NC(=O)[C@H](Cc2c[nH]cn2)NC(=O)[C@@H](Cc2c[nH]c3ccccc23)NC(=O)[C@H](Cc2ccc(O)cc2)NC(=O)[C@@H](NC(=O)[C@H](N)Cc2ccc3ccccc3c2)CSSC[C@@H](C(=O)N[C@@H](Cc2ccc3ccccc3c2)C(N)=O)NC1=O [Analog #14, [His^5]-cyclo SS-octa] (H-[d2Nal]CY[dW]HVC[2Nal]-NH2; disulfide 2-7; N-terminus assumed)	45	50 fold	8 ± 1	97 ± 7	2 ± 1	13 ± 1	–	–	–	–	–	–	–	3	–	–
CCN(CC)CCCC[C@@H]1NC(=O)[C@@H](Cc2c[nH]c3ccccc23)NC(=O)[C@H](Cc2ccc(O)cc2)NC(=O)[C@@H](NC(=O)[C@H](N)Cc2ccccc2)CSSC[C@@H](C(=O)N[C@@H](Cc2ccc3ccccc3c2)C(N)=O)NC(=O)[C@H]([C@@H](C)O)NC1=O [Analog #16, [D-Phe^1, Lys(diEt)^5, Thr^6] cyclo SS-octa] (H-[dF]CY[dW][Lys(Et2)]TC[2Nal]-NH2; disulfide 2-7; N-terminus assumed)	18	–	11 ± 2	73 ± 15	5 ± 1	12 ± 1	–	–	–	–	–	–	–	–	–	–
CC(C)[C@@H]1NC(=O)[C@H](CCCCN)NC(=O)[C@@H](Cc2ccc3ccccc3c2)NC(=O)[C@H](Cc2ccc(O)cc2)NC(=O)[C@@H](NC(=O)[C@H](N)Cc2ccc3ccccc3c2)CSSC[C@@H](C(=O)N[C@@H](Cc2ccc3ccccc3c2)C(N)=O)NC1=O [Analog #17, [D-Nal^4]-cyclo SS-octa] (H-[d2Nal]CY[d2Nal]KVC[2Nal]-NH2; disulfide 2-7; N-terminus assumed)	2	almost no effect on affinity	12 ± 4	15 ± 2	4 ± 2	19 ± 1	–	–	–	–	–	completely inhibited	–	–	> 100	–
endothelin 1 (CSCSSLMDKECVYFCHLDIIW; disulfide 1-15, 3-11; ends not checked; UniProt P05305 53-73, looked up) [ET-1, agonist from Peninsula Laboratories, reference compound]	–	–	–	–	–	–	–	–	–	–	–	–	–	–	–	11.0±2.1

Source: patent publication EP0606463B1, “NEUROMEDIN B RECEPTOR ANTAGONISTS” (The Administrators of The Tulane Educational Fund, priority 1992, dated 1994)
